# Legend:
# [1] = test system: CHO 9E4 cells; settings: MSX 25 μM; 13C3; 960 wells tested; growing clones after 15 to 20 days
# [2] = test system: CHO 9E4 cells; assay: Preliminary culture of CHO 9E4 cells with leflunomide; type: cell-based, Chinese hamster; settings: leflunomide at 50 and 100 μM; preliminary experiments
# Method: This obtained 27 wells with growing cells. Of these 27, 4 produced low but significant amount 13C3 antibody. However production was unstable and the efficiency was low below 0.1%. These experiments served as proof of principle that DHODH can be used as a selectable marker for recombinant protein production, so further experiments were performed.
# [3] = test system: CHO 9E4 cell line; assay: Selection of stably transfected CHO 9E4 cells with leflunomide or teriflunomide as selection agent; type: cell-based, Chinese hamster; settings: for Antibody: Less than 10 μg/ml (number of wells) / Antibody: More than 10 μg/ml (number of wells) / % of Occupied / % of Producers / Occupied (number of wells): Teriflunomide 50 μM; for % of Occupied / % of Producers / Occupied (number of wells): 480 wells tested; for Occupied (number of wells): growing clones after 15 to 20 days
# From the text: The CHO 9E4 cell line was transfected with two different plasmids bearing the cDNA encoding human DHODH cDNA and the genetic material for production of anti CD38 or 13C3 antibodies (vectors pBH4952 and pBH4967). As a control vector for selection, the plasmid bearing a cDNA encoding human GS cDNA instead of DHODH (pBH3695) was transfected using into CHO 9E4 cell lines. The genetic material was transfected using standard electroporation techniques.
# Twenty four hours post transfection, the selection process was started. […] The control vector was equally transfected and submitted to the same selection process.
# In each case, 480 wells were seeded with 2000 cells/well.
smiles,measurement,setting,value
"CS(=N)(=O)CC[C@H](N)C(=O)O (stereo partly drawn) [MSX, L-methionine sulfoximine]",Occupied (number of wells),[1],46
"Cc1oncc1C(=O)Nc1ccc(C(F)(F)F)cc1 [leflunomide, 5-methyl-N-[4-(trifluoromethyl)phenyl]-isoxazole-4-carboxamide]",effect on CHO 9E4 cell growth,[2],did not kill the cells but inhibited growth
same,antibody in supernatants of the 480 wells,[3]; leflunomide 50 and 100 μM,none of the supernatants showed detectable amount of antibodies
same,wells displaying growing clones,"[3]; leflunomide 50 and 100 μM, DHODH from human or hamster origin, after 20 days",all the wells were displaying growing clones
"C/C(O)=C(\C#N)C(=O)Nc1ccc(C(F)(F)F)cc1 [teriflunomide, (2Z)-2-cyano-3-hydroxy-N-[4-(trifluoromethyl)phenyl]but-2-enamide]",Antibody: Less than 10 μg/ml (number of wells),[3]; 13C3,24
same,Antibody: More than 10 μg/ml (number of wells),[3]; 13C3,14
same,% of Occupied,[3]; 13C3,8%
same,% of Producers,[3]; 13C3,3%
same,Occupied (number of wells),[3]; 13C3,38
same,Antibody: Less than 10 μg/ml (number of wells),[3]; anti-CD38,29
same,Antibody: More than 10 μg/ml (number of wells),[3]; anti-CD38,19
same,% of Occupied,[3]; anti-CD38,10%
same,% of Producers,[3]; anti-CD38,4%
same,Occupied (number of wells),[3]; anti-CD38,48
same,growth of cells transfected with control vector,"[3]; control vector pBH3695 (human GS), 50 and 100 μM teriflunomide, even after 25 days, 480 wells",no growth was observed in any of the wells
same,wells with growing cells,"[3]; teriflunomide-selected, human DHODH vectors pBH4967 and pBH4952, two weeks later",8-10%
same,growth of cells transfected with hamster DHODH vectors,"[3]; teriflunomide-selected, vectors pBH4940 and pBH4939",no growth was observed in any of the wells
